Measurements: paper PMC10945559, “Forgotten Natural Products: Semisynthetic Development of Blasticidin S As an Antibiotic Lead” (ACS Medicinal Chemistry Letters, 2024)
Values after ≈ are worked out from the molar mass of the structure shown. Like-named read-outs stand apart in the source and are kept apart here.

Legend:
Pseudomonas aeruginosa = assay: Broth microdilution antibacterial assay; format: cell-based
Description: (§1) Antibacterial Assay Procedure
(§2) Broth Microdilution Assays
(§3) Media and solutions were autoclaved or sterile filtered prior to use and manipulations were carried out in a laminar flow hood. Antibacterial testing was performed in polypropylene 96 -well flat bottom plates. The minimal inhibitory concentration of blasticidin S ( 1) hydrochloride, P10 (2), and derivatives 15–22 were assessed against Staphylococcus aureus ΔNorA, S. aureus 8810, methicillin-resistant S. aureus (MRSA) ATCC 43300, Enterococcus faecalis ATCC 29212, vancomycin-resistant Enterococcus, Klebsiella pneumoniae ATCC 29665, Pseudomonas aeruginosa, and Acinetobacter baumannii ATCC 17978 using serial dilutions. Doxycycline (Gold Bio) as a positive control and the vehicle as a negative control. Stock solutions of each compound were prepared at 5.12 mg/mL in 50% DMSO/water and serially diluted in 50% DMSO/water to create master plates. From the master plates, 10 μL of each dilution was applied to test plates using a Bravo automated liquid transfer system (Agilent). Bacteria previously grown overnight (37 °C, 120 – 200 RPM), in LB broth were diluted to an OD600 of 0.0 5 in cation-adjusted Mueller-Hinton broth, grown to an OD600 of ~0.5, and diluted to an OD600 of 0.004 in cation-adjusted Mueller-Hinton broth. These diluted cultures were applied to the test plates (190 μL per test well) resulting in final concentrations of the test compounds of 256–2 μg/mL. Growth controls (wells with inoculated media but no vehicle or test compounds) were included to assess any potential toxicity from the vehicle. The plates were incubated at 37 °C for 16–18 h, except for VRE and E. faecalis, which were incubated at 37 °C for 24 h. Inhibition was determined by measuring the optical density at 600 nm (OD600) with a Cytation 3 plate reader (BioTek). The optical density measurements were normalized to the positive and negative controls and the vehicle and growth controls were compared and found to be indistinguishable, indicating no toxicity from the vehicle used. The MIC was the lowest concentration that inhibited >90% of growth. Two biological replicates were performed in duplicate. MIC values are reported […]
(§4) as a range from biological replicates. Inhibition curves were generated using Prism (GraphPad).
(§5) The IC50 values reported in Table 2 are the average of the two biological replicates ± standard […]
(§6) Cytotoxicity Assay Procedure
(§7) Human lung fibroblast cells, MRC -5 (CCL-171), were cultured at 37℃ with 5% CO2 and were plated at 5000 cells/well in a 96 -well plate. Compounds 1, 2, and 15-22 were initially prepared at concentrations of 5.12 mg/mL in a vehicle of 50% DMSO. Dilutions of the compounds (4 – 512 μg/mL) were then prepared in growth medium containing Dulbecco’s modified Eagle’s medium (DMEM) with high glucose, L -glutamine, and sodium pyruvate supplemented with 10% fetal bovine serum (FBS), 1% non -essential amino acids, and 0.1% gentamicin sulfate, and 25mM HEPES. The vehicle (50% DMSO) was also prepared via the sa me dilution series to serve as a control. Growth media was removed from the cells and replaced with the same volume of each compound dilution. Cells were incubated for 24 h , after which CellTiter 96® AQueous One Solution Reagent was added to each well as recommended by the manufacturer’s protocol (Promega CellTiter 96 AQueous One Solution Cell Proliferation Assay) and further incubated for 4 h. After incubation, absorbance was measured at 490 nm on an Infinite M plex multimode microplate reader with i -control Tecan software. Viability was calculated by subtracting media only absorbance values and normalizing to the vehicle control at each concentration. The presented data is one assay performed in triplicate that is representative of multiple trials. Data for the 256 and 512 μg/mL concentrations were removed from analysis due to vehicle toxicity […]
(§8) CC50 concentrations were determined via the ED50 Plus v1.0 software (https://archive.org/details/ed50v10_zip).

[1] = test system: Enterococcus faecalis ATCC 29212; assay: Broth microdilution antibacterial assay; format: cell-based
Description: as §1, §2, §3, §4, §5, §6, §7, §8

[2] = test system: Klebsiella pneumoniae ATCC 29665; assay: Broth microdilution antibacterial assay; format: cell-based
Description: as §1, §2, §3, §4, §5, §6, §7, §8

[3] = test system: Staphylococcus aureus ΔNorA; assay: Broth microdilution antibacterial assay; format: cell-based
Description: as §1, §2, §3, §4, §5, §6, §7, §8

[4] = test system: Acinetobacter baumannii ATCC 17978; assay: Broth microdilution antibacterial assay; format: cell-based
Description: as §1, §2, §3, §4, §5, §6, §7, §8

[5] = test system: vancomycin-resistant Enterococcus (VRE); assay: Broth microdilution antibacterial assay; format: cell-based
Description: as §1, §2, §3, §4, §5, §6, §7, §8

S. aureus 8810 = assay: Broth microdilution antibacterial assay; format: cell-based, Staphylococcus aureus
Description: as §1, §2, §3, §4, §5, §6, §7, §8

[6] = test system: methicillin-resistant S. aureus (MRSA) ATCC 43300; assay: Broth microdilution antibacterial assay; format: cell-based, Staphylococcus aureus
Description: as §1, §2, §3, §4, §5, §6, §7, §8

in vitro = format: cell-based, human; conditions: human; MRC-5 (lung fibroblast); 24 h; one biological replicate (n = 3); read-out: CC50 for human cells
Description: as §4, §5, §6, §7, §8
Figure S41. The effect of compounds on cell viability. The lines represent non -linear regression curves, and error bars represent means ± […]
SD (n=3). […]

[7] = Klebsiella pneumoniae, ATCC29665
[8] = Acinetobacter baumannii, ATCC17978

CCCNC(=O)[C@H]1O[C@@H](n2ccc(N)nc2=O)C=C[C@@H]1NC(=O)C[C@@H](N)CCN(C)C(=N)N [Compound 17]
Selectivity index (CC50/IC50) (Pseudomonas aeruginosa; MRC-5 CC50 / P. aeruginosa IC50): 3.2 | IC50 (Pseudomonas aeruginosa; Pseudomonas aeruginosa): 19.3 ± 1.6 µg/mL (≈ 41.6 µM) | MIC (Pseudomonas aeruginosa; Pseudomonas aeruginosa): 64 µg/mL (≈ 138 µM) | IC50 ([1]; Enterococcus faecalis, ATCC29212): 9.3 ± 1.7 µg/mL (≈ 20.1 µM) | MIC ([1]; Enterococcus faecalis, ATCC29212, 24 h): 16 to 32 µg/mL (≈ 34.5 to 69 µM) | MIC ([1]; Enterococcus faecalis, ATCC29212, read-out: Average Activity against E. faecalis): 16 µg/mL (≈ 34.5 µM) | Selectivity index (CC50/IC50) ([1]; MRC-5 CC50 / E. faecalis IC50): 6.6 | IC50 [2, 7]: 44.9 ± 3.2 µg/mL (≈ 96.9 µM) | MIC [2, 7]: 128 to 256 µg/mL (≈ 276 to 552 µM) | Selectivity index (CC50/IC50) ([2]; MRC-5 CC50 / K. pneumoniae IC50): 1.4 | Selectivity index (CC50/IC50) ([3]; MRC-5 CC50 / S. aureus ΔNorA IC50): 3.9 | IC50 ([3]; Staphylococcus aureus): 15.8 ± 1.1 µg/mL (≈ 34.1 µM) | MIC ([3]; Staphylococcus aureus): 64 to 128 µg/mL (≈ 138 to 276 µM) | IC50 [4, 8]: 39.3 ± 1.9 µg/mL (≈ 84.8 µM) | MIC [4, 8]: > 256 µg/mL | Selectivity index (CC50/IC50) ([4]; MRC-5 CC50 / A. baumannii IC50): 1.6 | IC50 ([5]; Enterococcus, VRE): 16.8 ± 3.1 µg/mL (≈ 36.2 µM) | MIC ([5]; Enterococcus, VRE, 24 h): 64 µg/mL (≈ 138 µM) | MIC ([5]; Enterococcus, VRE, read-out: Average Activity against VRE): 64 µg/mL (≈ 138 µM) | Selectivity index (CC50/IC50) ([5]; MRC-5 CC50 / VRE IC50): 3.6 | Selectivity index (CC50/IC50) (S. aureus 8810; MRC-5 CC50 / S. aureus IC50): 16 | IC50 (S. aureus 8810; Staphylococcus aureus, 8810): 3.9 ± 0.1 µg/mL (≈ 8.41 µM) | MIC (S. aureus 8810; Staphylococcus aureus, 8810): 16 to 32 µg/mL (≈ 34.5 to 69 µM) | MIC (S. aureus 8810; Staphylococcus aureus, 8810, read-out: Average Activity against S. aureus): 24 µg/mL (≈ 51.8 µM) | Selectivity index (CC50/IC50) ([6]; MRC-5 CC50 / MRSA IC50): 8.1 | IC50 ([6]; Staphylococcus aureus): 7.6 ± 0.8 µg/mL (≈ 16.4 µM) | MIC ([6]; Staphylococcus aureus): 16 to 32 µg/mL (≈ 34.5 to 69 µM) | MIC ([6]; Staphylococcus aureus, read-out: Average Activity against MRSA): 24 µg/mL (≈ 51.8 µM) | CC50 at 24 h (in vitro): 61.1 µg/mL (≈ 132 µM)
